Where “and” joins values, the source holds several entries; their conditions need not be identical. Equal values may be shown once. Read-outs that look alike come from different tables or passages of the source.
Experiment: Brain-to-plasma ratio of Compound C after oral gavage or intranasal administration (Example 5)
Format: in vivo, Sprague-Dawley rats
Settings: for concentration at 10 min / concentration at 30 min / concentration at 60 min / Kp at […] / Kp at 0.5 h / Kp at 1 h: Sprague-Dawley
Description: Three treatment groups of nine rats each were used (see Study Design, Table 9). […] The animals were housed up to three per cage and identified by cage labels. A single room was used for this study. […] Food was withheld from the animals for a minimum of 12 hours before the study and during the study, and was returned at 4 hours post-dose. Water was supplied ad libitum during the study.
All dosing solutions were prepared in isotonic PBS (phosphate buffered saline) buffer at pH 7.4. […] For intranasal dosing, the animals were anesthetized with CO2 prior to dosing, and the solution was administered in a 25 μL droplet from a pipette.
For each treatment group, brain and plasma samples were collected at 10, 30 and 60 minutes post-dose. Blood samples were placed in heparinized tubles and spun at 13,000 rpm for 5 minutes. The plasma was placed in polyethylene tubes and frozen (−60 to −80° C.). Brain samples were also placed in chilled tubes and frozen (−60 to −80° C.). Samples remained chilled during subsequent processing.
Brain samples were thawed and weighed. […] After homogenation, the volume of each sample was recorded and the samples were frozen at −80° C. until analysis.
Plastic tubes were used for all steps. Standards were prepared at concentrations of 1000, 500, 250, 100, 50, 10, 5, and 1 ng/mL by serial dilution. Quality control samples were also prepared at 500, 100, and 5 ng/mL. […] Brain standards and quality control samples were treated identically to the test compound samples.
Brain samples (200 μL) were loaded onto a 96 well plate and then transferred to 400 μL of acetonitrile containing internal standard (100 ng/mL Pindolol) in a Sirocco Protein Precipitation Plate (Waters Corporation). The resulting suspensions were mixed, then filtered into a clean 96-well collection plate using a vacuum and transferred (100 μL) to plastic HPLC vials for analysis.
Brain samples (50 μL) were loaded onto a 96 well plate and then transferred to 150 μL of acetonitrile containing internal standard (100 ng/mL Pindolol) in a Sirocco Protein Precipitation Plate (Waters Corporation). The resulting suspensions were mixed, then filtered into a clean 96-well collection plate using a vacuum and transferred (100 μL) to plastic HPLC vials for analysis.

[1] = 1 mg/kg intranasal dose, 10 min
[2] = 1 mg/kg intranasal dose, 30 min
[3] = 1 mg/kg intranasal dose, 60 min
[4] = 5 mg/kg intranasal dose, 10 min
[5] = 5 mg/kg intranasal dose, 60 min

For `CN[C@@H](C)C/C=C/c1cncc(OC(C)C)c1` [Compound C, (2S)-(4E)-N-methyl-5-(3-(5-isopropoxypyridin)yl)-4-penten-2-amine], the “Brain-to-Plasma Ratio” value [1] was 1.55 and 1.68, the “Mean Ratio (brain-to-plasma)” value [1] was 1.97 and the “Brain-to-Plasma Ratio” value [2] was 1.69 and 2.36. The “Mean Ratio (brain-to-plasma)” value [2] was 2.27, the “Plasma Conc.” value [2] was 118 ng/mL and 86.8 ng/mL and the “Brain-to-Plasma Ratio” value [3] was 1.86 and 2.57. For the same molecule, the “Mean Ratio (brain-to-plasma)” value [3] was 2.12, the “Plasma Conc.” value [3] was 66 ng/mL and 37.8 ng/mL and the “Brain-to-Plasma Ratio” value [4] was 0.99. For the same molecule, the “Plasma Conc.” value [4] was 1570 ng/mL and 1700 ng/mL, the “Brain-to-Plasma Ratio” value (5 mg/kg intranasal dose, 30 min) was 3.58 and 2.11 and the “Brain-to-Plasma Ratio” value [5] was 3.26 and 1.95. The “Mean Ratio (brain-to-plasma)” value [5] was 2.41, the “Plasma Conc.” value [5] was 175 ng/mL and 119 ng/mL and the “Brain-to-Plasma Ratio” value (5 mg/kg oral dose, 30 min) was 2.65 and 1.67. For the same molecule, the “Mean Ratio (brain-to-plasma)” value (5 mg/kg oral dose, 30 min) was 2.21, the “Brain-to-Plasma Ratio” value (5 mg/kg oral dose, 60 min) was 3.95 and the “Mean Ratio (brain-to-plasma)” value (5 mg/kg oral dose, 60 min) was 3.55. The “5 mg/kg IN/5 mg/kg PO, Brain” value (30 min) was 1.0, the “5 mg/kg IN/5 mg/kg PO, Plasma” value (30 min) was 0.7 and the “5 mg/kg IN/5 mg/kg PO, Brain” value (60 min) was 0.7. For the same molecule, the “5 mg/kg IN/5 mg/kg PO, Plasma” value (60 min) was 1.0, the concentration at 10 min (rat, brain homogenate, oral, 5 mg/kg, 5 mg/kg oral dose, 10 min, read-out: Brain Conc.) was 45.4 ng/mL and the concentration at 30 min (rat, brain homogenate, oral, 5 mg/kg, 5 mg/kg oral dose, 30 min, read-out: Brain Conc.) was 205 ng/mL. For the same molecule, the concentration at 10 min (rat, brain homogenate, other: intranasal, 1 mg/kg, 1 mg/kg intranasal dose, 10 min, read-out: Brain Conc.) was 47.6 ng/mL, the concentration at 30 min (rat, brain homogenate, other: intranasal, 1 mg/kg, 1 mg/kg intranasal dose, 30 min, read-out: Brain Conc.) was 43.7 ng/mL and the concentration at 60 min (rat, brain homogenate, other: intranasal, 1 mg/kg, 1 mg/kg intranasal dose, 60 min, read-out: Brain Conc.) was 17.7 ng/mL. For the same molecule, the concentration at 10 min (rat, brain homogenate, other: intranasal, 5 mg/kg, 5 mg/kg intranasal dose, 10 min, read-out: Brain Conc.) was 269 ng/mL, the Kp at […] (rat, brain, inhaled or intranasal, 1 mg/kg, 1 mg/kg intranasal dose, 10 min, read-out: Mean Ratio (brain-to-plasma)) was 2 and the Kp at 0.5 h (rat, brain, inhaled or intranasal, 1 mg/kg, 1 mg/kg intranasal dose, 30 min, read-out: Mean Ratio (brain-to-plasma)) was 2.8. The Kp at 1 h (rat, brain, inhaled or intranasal, 1 mg/kg, 1 mg/kg intranasal dose, 60 min, read-out: Mean Ratio (brain-to-plasma)) was 2.4, the Kp at […] (rat, brain, inhaled or intranasal, 5 mg/kg, 5 mg/kg intranasal dose, 10 min, read-out: Mean Ratio (brain-to-plasma)) was 1.2 and the Kp at 0.5 h (rat, brain, inhaled or intranasal, 5 mg/kg, 5 mg/kg intranasal dose, 30 min, read-out: Mean Ratio (brain-to-plasma)) was 2.8. It also gave a Kp at 1 h (rat, brain, inhaled or intranasal, 5 mg/kg, 5 mg/kg intranasal dose, 60 min, read-out: Mean Ratio (brain-to-plasma)) of 2.4, a concentration at 10 min (rat, brain, oral, 5 mg/kg, 5 mg/kg oral dose, 10 min, read-out: Brain Conc.) of 227 ng/g and a concentration at 30 min (rat, brain, oral, 5 mg/kg, 5 mg/kg oral dose, 30 min, read-out: Brain Conc.) of 1020 ng/g. It also gave a concentration at 10 min (rat, brain, other: intranasal, 1 mg/kg, 1 mg/kg intranasal dose, 10 min, read-out: Brain Conc.) of 238 ng/g, a concentration at 30 min (rat, brain, other: intranasal, 1 mg/kg, 1 mg/kg intranasal dose, 30 min, read-out: Brain Conc.) of 219 ng/g and a concentration at 60 min (rat, brain, other: intranasal, 1 mg/kg, 1 mg/kg intranasal dose, 60 min, read-out: Brain Conc.) of 89 ng/g. The concentration at 10 min (rat, brain, other: intranasal, 1 mg/kg, intranasal 1 mg/kg, 10 minutes, read-out: Average brain levels) was 136 ng/g, the concentration at 30 min (rat, brain, other: intranasal, 1 mg/kg, intranasal 1 mg/kg, 30 minutes, read-out: Average brain levels) was 95 ng/g and the concentration at 60 min (rat, brain, other: intranasal, 1 mg/kg, intranasal 1 mg/kg, 60 minutes, read-out: Average brain levels) was 50 ng/g. For the same molecule, the concentration at 10 min (rat, brain, other: intranasal, 5 mg/kg, 5 mg/kg intranasal dose, 10 min, read-out: Brain Conc.) was 1340 ng/g, the concentration at 10 min (rat, brain, other: intranasal, 5 mg/kg, intranasal 5 mg/kg, 10 minutes, read-out: Average brain levels) was 1750 ng/g and the concentration at 30 min (rat, brain, other: intranasal, 5 mg/kg, intranasal 5 mg/kg, 30 minutes, read-out: Average brain levels) was 1160 ng/g. The concentration at 60 min (rat, brain, other: intranasal, 5 mg/kg, intranasal 5 mg/kg, 60 minutes, read-out: Average brain levels) was 382 ng/g, the concentration at 10 min (rat, brain, po, 5 mg/kg, oral gavage 5 mg/kg, 10 minutes, read-out: Average brain levels) was 225 ng/g and the concentration at 30 min (rat, brain, po, 5 mg/kg, oral gavage 5 mg/kg, 30 minutes, read-out: Average brain levels) was 1170 ng/g. The concentration at 60 min (rat, brain, po, 5 mg/kg, oral gavage 5 mg/kg, 60 minutes, read-out: Average brain levels) was 571 ng/g, the Kp at […] (rat, brain/plasma, inhaled or intranasal, 1 mg/kg, 1 mg/kg intranasal dose, 10 min, read-out: Brain-to-Plasma Ratio) was 2.7 and the Kp at 0.5 h (rat, brain/plasma, inhaled or intranasal, 1 mg/kg, 1 mg/kg intranasal dose, 30 min, read-out: Brain-to-Plasma Ratio) was 2.78. For the same molecule, the Kp at 1 h (rat, brain/plasma, inhaled or intranasal, 1 mg/kg, 1 mg/kg intranasal dose, 60 min, read-out: Brain-to-Plasma Ratio) was 1.92, the Kp at […] (rat, brain/plasma, inhaled or intranasal, 5 mg/kg, 5 mg/kg intranasal dose, 10 min, read-out: Brain-to-Plasma Ratio) was 1.42 and the Kp at 0.5 h (rat, brain/plasma, inhaled or intranasal, 5 mg/kg, 5 mg/kg intranasal dose, 30 min, read-out: Brain-to-Plasma Ratio) was 2.63. For the same molecule, the Kp at 1 h (rat, brain/plasma, inhaled or intranasal, 5 mg/kg, 5 mg/kg intranasal dose, 60 min, read-out: Brain-to-Plasma Ratio) was 2.03, the Kp at […] (rat, brain/plasma, po, 5 mg/kg, 5 mg/kg oral dose, 10 min, read-out: Mean Ratio (brain-to-plasma)) was 0.8 and the Kp at 0.5 h (rat, brain/plasma, po, 5 mg/kg, 5 mg/kg oral dose, 30 min, read-out: Brain-to-Plasma Ratio) was 2.31. It also gave a Kp at 0.5 h (rat, brain/plasma, po, 5 mg/kg, 5 mg/kg oral dose, 30 min, read-out: Mean Ratio (brain-to-plasma)) of 2.2, a Kp at 1 h (rat, brain/plasma, po, 5 mg/kg, 5 mg/kg oral dose, 60 min, read-out: Brain-to-Plasma Ratio) of 3.89 and a Kp at 1 h (rat, brain/plasma, po, 5 mg/kg, 5 mg/kg oral dose, 60 min, read-out: Mean Ratio (brain-to-plasma)) of 3.5. The Kp at […] (rat, brain/plasma, po, 5 mg/kg, 10 min, read-out: 5 mg/kg IN/5 mg/kg PO, Ratio (brain to plasma)) was 1.5, the Kp at 0.5 h (rat, brain/plasma, po, 5 mg/kg, 30 min, read-out: 5 mg/kg IN/5 mg/kg PO, Ratio (brain to plasma)) was 1.3 and the Kp at 1 h (rat, brain/plasma, po, 5 mg/kg, 60 min, read-out: 5 mg/kg IN/5 mg/kg PO, Ratio (brain to plasma)) was 0.7. For the same molecule, the concentration at 30 min (rat, plasma, other: intranasal, 1 mg/kg, 1 mg/kg intranasal dose, 30 min, read-out: Plasma Conc.) was 78.7 ng/mL, the concentration at 60 min (rat, plasma, other: intranasal, 1 mg/kg, 1 mg/kg intranasal dose, 60 min, read-out: Plasma Conc.) was 46 ng/mL and the concentration at 10 min (rat, plasma, other: intranasal, 1 mg/kg, intranasal 1 mg/kg, 10 minutes, read-out: Average plasma levels) was 250 ng/mL. The concentration at 30 min (rat, plasma, other: intranasal, 1 mg/kg, intranasal 1 mg/kg, 30 minutes, read-out: Average plasma levels) was 208 ng/mL, the concentration at 60 min (rat, plasma, other: intranasal, 1 mg/kg, intranasal 1 mg/kg, 60 minutes, read-out: Average plasma levels) was 103 ng/mL and the concentration at 10 min (rat, plasma, other: intranasal, 5 mg/kg, 5 mg/kg intranasal dose, 10 min, read-out: Plasma Conc.) was 1120 ng/mL. For the same molecule, the concentration at 60 min (rat, plasma, other: intranasal, 5 mg/kg, 5 mg/kg intranasal dose, 60 min, read-out: Plasma Conc.) was 170 ng/mL, the concentration at 10 min (rat, plasma, other: intranasal, 5 mg/kg, intranasal 5 mg/kg, 10 minutes, read-out: Average plasma levels) was 1460 ng/mL and the concentration at 30 min (rat, plasma, other: intranasal, 5 mg/kg, intranasal 5 mg/kg, 30 minutes, read-out: Average plasma levels) was 421 ng/mL. The concentration at 60 min (rat, plasma, other: intranasal, 5 mg/kg, intranasal 5 mg/kg, 60 minutes, read-out: Average plasma levels) was 155 ng/mL, the concentration at 10 min (rat, plasma, po, 5 mg/kg, oral gavage 5 mg/kg, 10 minutes, read-out: Average plasma levels) was 312 ng/mL and the concentration at 30 min (rat, plasma, po, 5 mg/kg, oral gavage 5 mg/kg, 30 minutes, read-out: Average plasma levels) was 578 ng/mL. For the same molecule, the concentration at 60 min (rat, plasma, po, 5 mg/kg, oral gavage 5 mg/kg, 60 minutes, read-out: Average plasma levels) was 155 ng/mL and the “Intranasal absorption into the brain and bloodstream compared with oral administration” value (rat, in vivo, po) was “much faster”.
